Reference: patent publication US10336734B2, “Inhibitors of ACK1/TNK2 tyrosine kinase” (H. LEE MOFFITT CANCER CENTER AND RESEARCH INSTITUTE, INC., priority 2015, dated 2019)

How the values were obtained:
[1] = test system: LNCaP-caAck xenograft tumors; test: LNCaP-caAck xenograft in castrated SCID mice; format: in vivo; details: 50 mg/kg, 6 days a week for four weeks
Procedure: FIG. 9. ACK1 inhibitor (R)-9bMS suppresses xenograft tumor growth in castrated mice. Male SCID mice were castrated and injected with LNCaP-caAck cells. Once mice formed palpable tumors, mice were injected with vehicle (10% DMSO in PBS) or (R)-9bMS (50 mg/kg of body) for 6 days a week for four weeks (n=7 mice for each treatment). Tumor volumes were measured.

LAPC4 = test: Cell viability/proliferation of PC cell lines, LAPC4; format: cell-based; details: LAPC4, 96 hr; read-out: IC50, suppression of proliferation
Excerpt: (§1) FIG. 7A through 7F. (R)-9bMS overcome enzalutamide-resistance of CRPCs. […] Data represent mean±s.e.m. (n=3) from one of three independent experiments. […] Data represent mean±s.e.m. (n=3) from one of three independent experiments. […] Data represent mean±standard error of the mean (s.e.m.) (n=3) from one of three independent experiments.*p<0.05. […] Cell cycle analysis of prostate cell lines treated with (R)-9bMS (24 hr).
(§2) To investigate the anti-tumor activity of ACK1 inhibitor, we first analyzed the ability (R)-9bMS to suppress proliferation of PC cell lines.

PC cells = test: Cell cycle and apoptosis of PC cells; format: cell-based
Excerpt: as §1, §2

[2] = test system: pY88-H4 epigenetic marks upstream of AR gene; test: ChIP-qPCR at AREM1-3 sites in C4-2B cells; format: cell-based
Excerpt: FIG. 5A through 5J. AR transcription is regulated by epigenetic modification of histone H4 at tyrosine 88 is sensitized byc(R)-9bMS. FIG. 5A through 5D show ChIP with pY88-H4 antibodies, followed by qPCR using primers corresponding to AREM1-3 and control (gene desert) sites of C4-2B cells treated with (R)-9bMS. Data represent mean±s.e.m. (n=3) from one of three independent experiments. **p<0.01. […] Data represent mean±s.e.m. (n=3) from one of three independent experiments. *p<0.05, **p<0.01. FIGS. 5F and 5G show ChIP with pY88-H4 antibodies, followed by qPCR using primers corresponding to AREM2 and AREM1 site of C4-2B cells transfected with ACK1, AR and control siRNA. Data represent mean±s.e.m. (n=3) from one of three independent experiments. *p<0.05, **p<0.01. […] Data represent mean±s.e.m. (n=3) from one of three independent experiments. *p<0.05. FIGS. 5I and 5J show qRT-PCR analysis of AR and PSA in LAPC4 cells transfected with FLAG-tagged H4 or Y88F mutant H4 expressing constructs. Data represent mean±s.e.m. (n=3) from one of three independent experiments.*p<0.05, **p<0.01.
FIG. 6A through 6F. Recruitment of the MLL2/WDR5 complex and deposition of H3K4me3 epigenetic marks upstream of the AR gen can be erased by (R)-9bMS. […]

[3] = test system: histone H4 Y88-phosphorylation; test: Immunoblot of H4 Y88-phosphorylation in ligand-treated PC cells; format: cell-based; details: serum and androgen starved PC cells, ligand activated; 5 μM (DHT 10 nM)
Procedure: FIG. 2A through 2C. ACK1 inhibitor (R)-9bMS suppresses epigenetic modification of histone H4 at tyrosine 88.
To assess endogenous H4-phosphorylation, serum and androgen starved PC cells were treated with ligands to activate ACK1. It led to robust H4 Y88-phosphorylation, suppressed upon (R)-9bMS treatment (FIG. 2A). […] Moreover, H4 Y88-phosphorylation was also detected in human CRPCs using mass spectrometry, which was validated by immunoblotting (FIG. 3A-3C).

VCaP = test: Cell viability/proliferation of PC cell lines, VCaP; format: cell-based; details: 96 hr, read-out: IC50, suppression of proliferation
Excerpt: as §1, §2

[4] = test system: enzalutamide-resistant C4-2B cell line; test: Cell viability and AR expression, enzalutamide-resistant C4-2B cells; format: cell-based
Excerpt: as §1, with “7F.” for “7F. (R)-9bMS overcome enzalutamide-resistance of CRPCs.”

C4-2B = test: Cell viability/proliferation of PC cell lines, C4-2B; format: cell-based; details: 96 hr, read-out: IC50, suppression of proliferation
Excerpt: as §1, §2

LNCaP = test: Cell viability/proliferation of PC cell lines, LNCaP; format: cell-based; details: 96 hr, read-out: IC50, suppression of proliferation
Excerpt: as §1, §2

AR-V7 = AR-V7 mRNA (qRT-PCR) and variant protein (immunoblot) in PC cells; format: cell-based; details: VCaP 3.5 μM, 16 hr; VCaP and LAPC4 immunoblot
Excerpt: FIG. 1A through 1F. Inhibition of ACK1 kinase activity by (R)-9bMS (DZ1-067 mesylate salt) suppresses AR and AR-V7 expression. […] Data represent mean±s.e.m. (n=3) from one of three independent experiments. *p<0.05. FIG. 1B and FIG. 1C show immunoblot analysis of androgen-deprived VCaP and LAPC4 cells treated with (R)-9bMS. […] FIG. 1E and FIG. 1F show qRT-PCR analysis of AR and PSA in PC3 cells transfected with caACK or kdACK constructs. Data represent mean±s.e.m. (n=3) from one of three independent experiments. **p<0.01.
We assessed AR-V7 mRNA levels upon treatment with (R)-9bMS (DZ1-067 mesylate salt).

C4-2B xenograft tumors = test: C4-2B CRPC xenograft in castrated SCID mice; format: in vivo
Procedure: FIG. 8A through 8F. (R)-9bMS mitigates CRPC tumor growth. […] Once formed palpable tumors, mice were injected with vehicle (10% DMSO in PBS) or (R)-9bMS (50 mg/kg of body) for 6 days a week for five weeks (n=9 mice for each treatment). Tumor volumes were measured. Data represent mean±s.e.m. […] Data represent mean±standard error of the mean (s.e.m.) (n=3) from one of three independent experiments. **p<0.01.
To investigate the effect of (R)-9bMS on CRPC xenograft tumor growth, C4-2B cells were implanted in castrated SCID mice.

[5] = 50 mg/kg, 6 days a week for five weeks

Compound: CN1CCN(c2ccc(Nc3ncc(Cl)c(NC[C@H]4CCCO4)n3)cc2)CC1 [(R)-9bMS]
- Xenograft tumor growth [1]: displayed sensitivity
- IC50 (LAPC4): 750 nM
- Cell cycle (PC cells; 24 hr): arrest PC cells in G2 phase
- Apoptosis (PC cells; C4-2B cells): inducing apoptosis
- pY88-H4 marks at AREM1-3 sites ([2]; ChIP real time PCR): erased
- WDR5, MLL2, H3K4me3 methyl marks and RNA Pol II at AREM1-3 sites ([2]; absence of androgen): significantly reduced
- H4 Y88-phosphorylation [3]: suppressed
- IC50 (VCaP): 450 nM
- Sensitivity of enzalutamide-resistant cells ([4]; enzalutamide-resistant C4-2B cells, 96 hr): retained sensitivity
- AR expression in enzalutamide-resistant cells ([4]; immunoblot): able to suppress AR expression
- IC50 (C4-2B): 400 nM
- IC50 (LNCaP): 1800 nM
- AR-V7 mRNA and variant protein levels (AR-V7): significantly reduced
- Organ histology (H&E) (C4-2B xenograft tumors; 50 mg/kg): histologically normal
- body weights (C4-2B xenograft tumors; 50 mg/kg): no statistical difference
- CRPC tumor growth (C4-2B xenograft tumors; [5]): significant decrease
- tumor weight (C4-2B xenograft tumors; [5]): significant decrease
- AR, PSA & TMPRSS2 mRNAs levels in tumors (C4-2B xenograft tumors; qRT-PCR of xenograft tumors): significant reduction
